From publication PMC8541513, “Stereoselective Synthesis of the Di-Spirooxindole Analogs Based Oxindole and Cyclohexanone Moieties as Potential Anticancer Agents” (Molecules, 2021)
Like-named read-outs stand apart in the source and are kept apart here.

Legend:
Breast MDA-MB231 = test: MTT anticancer assay, breast MDA-MB231 cells; type: cell-based; details: Homo sapiens, MDA-MB-231, 48 h, 1-30 µM, ± SD of three independent experiments
Method: (§1) The antiproliferative activity against four cancer cell lines, including prostate PC3, cervical HeLa, and triple-negative breast cancer (MCF-7 and MDA-MB231) was evaluated by MTT assay, while standard drug doxorubicin was used as a reference for comparison (Table 1).
(§2) Cytotoxicity against BJ human fibroblast cells and cytotoxicity against PC3, HeLa, MCF-7, and MDA-MB231 cancer cell lines were evaluated by following the procedure as described in the literature (Supplementary Materials). […]
(§3) The Biological Activity Assays Protocols
(§4) Cytotoxic activity of compounds was evaluated in 96-well flat-bottomed micro plates by using the standard MTT (3-[4, 5-dimethylthiazole-2-yl]-2, 5-diphenyl-tetrazolium bromide) colorimetric assay.
(§5) For this purpose, PC3 cells (Prostate Cancer) / BJ Human fibroblast cells / HeLa cells (Cervical Cancer) / MCF-7 and MDA-MB-231 breast cancer cell line were cultured in Dulbecco’s Modified Eagle Medium, supplemented with 5% of fetal bovine serum (FBS), 100 IU/ml of penicillin and 100 µg/ml of streptomycin in 75 cm2 flasks, and kept in 5% CO2 incubator at 37 °C. Exponentially growing cells were harvested, counted with haemocytometer and diluted with a particular medium. Cell culture with the concentration of 1x10^5 cells/ml was prepared and introduced (100 µL/well) into 96-well plates. After overnight incubation, medium was removed and 200 µL of fresh medium was added with different concentrations of compounds (1-30µM). After 48 hrs, 200 µL MTT (0.5 mg/ml) was added to each well and incubated further for 4 hrs. Subsequently, 100µL of DMSO was added to each well. The extent of MTT reduction to formazan within cells was calculated by measuring the absorbance at 570 nm, using a micro plate reader (Spectra Max plus, Molecular Devices, CA, USA). The cytotoxicity was recorded […]
(§6) (1 picture or pasted object on this page, not shown here) […]
(§7) as concentration causing 50% growth inhibition (IC50) for PC3 cells. The percent inhibition was calculated by using the following formula:
(§8) % inhibition = 100-((mean of O.D of test compound – mean of O.D of negative control)/ (mean of O.D of positive control – mean of O.D of negative control)*100).
(§9) The results (% inhibition) were processed by using Soft- Max Pro software (Molecular Device, USA).
(§10) Standard drug used in the MTT assay was doxorubicin. […]

Prostate PC3 = test: MTT anticancer assay, prostate PC3 cells; type: cell-based; details: Homo sapiens, PC-3, 48 h, 1-30 µM, ± SD of three independent experiments
Method: as §1, §2, §3, §4, §5, §6, §7, §8, §9, §10

Human Fibroblast BJ = test: MTT cytotoxicity assay against BJ human fibroblast cells; type: cell-based; details: 48 h, 1-30 µM, ± SD of three independent experiments
Method: as §2, §3, §4, §5, §6, §7, §8, §9, §10

Breast MCF-7 = test: MTT anticancer assay, breast MCF-7 cells; type: cell-based; details: Homo sapiens, MCF7, 48 h, 1-30 µM, ± SD of three independent experiments
Method: as §1, §2, §3, §4, §5, §6, §7, §8, §9, §10

Cervical HeLa = test: MTT anticancer assay, cervical HeLa cells; type: cell-based; details: 48 h, 1-30 µM, ± SD of three independent experiments; for IC50: Homo sapiens, HeLa
Method: as §1, §2, §3, §4, §5, §6, §7, §8, §9, §10

[1] = system: MCF-7 breast cancer cells; set-up: method as in PMID 28126436, PMID 29413708; details: cited from earlier work
HeLa cancer cell line = system: HeLa cancer cell line; set-up: method as in doi:10.1016/j.molstruc.2019.03.032; details: cited from earlier work
HeLa cancer cells = system: HeLa cancer cells; set-up: method as in PMID 30844686; details: cited from earlier work
[2] = system: K562 leukemia cancer cells; set-up: method as in PMID 28126436, PMID 29413708; details: cited from earlier work
HCT-116 = system: HCT-116; set-up: method as in PMID 30802707; details: cited from earlier work
HepG2 [3] = system: HepG2; set-up: method as in PMID 30802707; details: cited from earlier work
PC-3 = system: PC-3; set-up: method as in PMID 30802707; details: cited from earlier work
HepG2 [4] = system: HepG2; set-up: method as in Barakat et al. (15); details: ref Barakat et al. (15); cited from earlier work

Compound	IC50 (Breast MDA-MB231)	IC50 (Prostate PC3)	IC50 (Human Fibroblast BJ)	IC50 (Breast MCF-7)	IC50 (Cervical HeLa)	other results
O=C1/C(=C/c2ccc(C(F)(F)F)cc2)CCC[C@@]12[C@H](c1ccc(C(F)(F)F)cc1)[C@H]1C[C@@H]3CCCC[C@@H]3N1[C@]21C(=O)Nc2cc(Cl)ccc21 [Compound 4m, (1. S,1′S,3′S,4a′S,8a′S,9a′R)-6″-Chloro-3-((E)-4-(trifluoromethyl)benzylidene)-1′-(4-(trifluoromethyl)phenyl)-4a′,5′,6′,7′,8′,8a′,9′,9a′-octahydro-1′H-dispiro[cyclohexane-1,2′-pyrrolo[1,2-a]indole-3′,3″-indoline]-2,2″-dione]	> 30 µM	> 30 µM	> 30 µM	> 30 µM	24.6 ± 0.4 µM	melting point: 78 to 79 °C
Cc1ccc2c(c1)[C@]1(C(=O)N2)N2[C@H](C[C@@H]3CCCC[C@@H]32)[C@@H](c2ccc(C(F)(F)F)cc2)[C@@]12CCC/C(=C\c1ccc(C(F)(F)F)cc1)C2=O [Compound 4n, (1. S,1′S,3′S,4a′S,8a′S,9a′R)-5″-Methyl-3-((E)-4-(trifluoromethyl)benzylidene)-1′-(4-(trifluorom-thyl)phenyl)-4a′,5′,6′,7′,8′,8a′,9′,9a′-octahydro-1′H-dispiro[cyclohexane-1,2′-pyrrolo[1,2-a]indole-3′,3″-indoline]-2,2″-dione]	> 30 µM	> 30 µM	> 30 µM	> 30 µM	> 30 µM	melting point: 73 to 74 °C; IC50, Cervical HeLa (Cervical HeLa): inactive
O=c1[nH]cc(F)c(=O)[nH]1 [Compound 5-FU, 5-fluorouracil]	–	–	–	–	–	IC50 [1]: 78.28 ± 0.2 µM
COc1cccc2c1C(=O)c1c(O)c3c(c(O)c1C2=O)C[C@@](O)(C(=O)CO)C[C@@H]3O[C@H]1C[C@H](N)[C@H](O)[C@H](C)O1 [Doxorubicin, reference compound]	0.32 ± 0.002 µM	1.9 ± 0.4 µM	> 30 µM	0.79 ± 0.05 µM	0.9 ± 0.14 µM	IC50 (HeLa cancer cell line): 1.2 µM
O=C(c1ccccn1)[C@@H]1[C@@H](c2ccccc2Cl)[C@H](c2ccccc2)N[C@@]12C(=O)Nc1ccccc12 [III]	–	–	–	–	–	selectivity between HeLa cancer cells and Vero healthy cells (HeLa cancer cells): 3 fold
O=C1C(=Cc2ccc(Br)cc2)CCCC12C1CCCN1C1(C(=O)Nc3ccccc31)C2c1ccc(Br)cc1 (centres unmarked) [VIII]	–	–	–	–	–	IC50 [1]: 15.32 ± 0.02 µM
COc1ccc(C=C2CCCC3(C2=O)C(c2ccc(OC)cc2)C2CSCN2C32C(=O)Nc3ccccc32)cc1 (centres unmarked) [VII]	–	–	–	–	–	IC50 [2]: 13.4 ± 0.14 µM
O=C(c1ccc(F)cc1)[C@H]1[C@H](c2ccc(Cl)cc2Cl)C2CSCN2[C@]12C(=O)Nc1ccccc12 (some centres unmarked) [VI]	–	–	–	–	–	IC50 (HeLa cancer cell line): 11.2 µM
O=C(/C=C/c1ccc(Cl)cc1Cl)[C@H]1[C@H](c2ccc(Cl)cc2Cl)[C@H]2CSCN2[C@]12C(=O)Nc1ccccc12 [V]	–	–	–	–	–	selectivity index for the cancer cells versus the normal cells (HCT-116; HCT-116, HepG2, PC-3 versus normal cells): > 2; IC50 (HCT-116): < 4 µM; IC50 (HepG2 [3]): < 4 µM; IC50 (PC-3): < 4 µM
N.N.[Cl][Pt][Cl] [cisplatin]	–	–	–	–	–	IC50 (HepG2 [4]): 5.5 µM
